PMC4308083, “Cytokine-Induced Loss of Glucocorticoid Function: Effect of Kinase Inhibitors, Long-Acting β2-Adrenoceptor Agonist and Glucocorticoid Receptor Ligands” (PLoS ONE, 2015)
Blank lines part the entries; values can stand above or below the compound they belong to.

Experiments:
[1] = test system: 2×GRE reporter; assay: Modulation of dexamethasone/NR3C1 ligand-induced 2×GRE reporter activation (kinase inhibitors, TNF, formoterol) in BEAS-2B cells; type: cell-based, human; details: for Effect on dexamethasone-induced 2×GRE reporter activation (concentration-response): 30 min pre-treatment, 6 h (Fig. 3B, Fig. 4), JNK inhibitor VIII only at 30 μM, PKC inhibitors above 1 μM
Description: (§1) BEAS-2B cells stably transfected with a glucocorticoid response element (2×GRE) driven luciferase reporter plasmid, pGL3.neo.TATA.neo [23], were cultured in medium containing 0.25 mg/ml G-418 (Promega, Madison, WI). Cells were grown to confluence in 24 or 48 well plates and incubated overnight in serum-free media prior to experiments. Cells were harvested in reporter lysis buffer and luciferase assays performed according to the manufacturer’s instructions (Firefly Luciferase Assay Kit; Biotium; Hayward, CA) using a 20/20n luminometer (Promega).
Data (n = 7), expressed as a percentage of Dex activation, are plotted as means ± S.E. BEAS-2B 2×GRE cells were pre-treated for 30 min with the indicated concentrations of B. PS or JNK or C. JNK in the presence or absence of 10 μM PS, before addition of 10 ng/ml TNF. After 1 h, 10 μM Dex was added and cells harvested 6 h later for luciferase assay. […] D+T indicates Dex plus TNF treatment.
Data (n = 3–4), expressed as fold activation, are plotted as means ± S.E. D+T indicates Dex plus TNF treatment.
(§2) Cells were harvested after 6 h for luciferase assays. Data (n = 7), expressed as fold activation, are plotted as means ± S.E. Lines of best fit were added in panel B. Statistical analyses were performed by ANOVA with a Dunnett’s test comparing each NR3C1 ligand alone versus in the presence of TNF and/or Form. *, P<0.05; **, P<0.01; ***, P<0.001.

[2] = test system: AKT1 phosphorylation; assay: Western blot of AKT1 phosphorylation in BEAS-2B cells; type: cell-based; details: Homo sapiens, 30 min pre-treatment, TNF 10 ng/ml 30 min, western blot (S2 Fig.), read-out: EC50 for block of AKT1 phosphorylation
Description: Cells were lysed in 1× Laemmli buffer supplemented with phosphatase inhibitors (Sigma-Aldrich) and 1× complete protease inhibitor cocktail (Roche; Indianapolis, IN), size fractionated on 12% acrylamide gels and subsequently electro-transferred onto Hybond enhanced chemiluminescent membranes (GE Healthcare; Waukesha, WI). Membranes were blocked in 5% milk in tris-buffered saline containing 1% tween 20 and probed with antibodies against phospho-jun proto-oncogene (pJUN; pc-Jun) (9164; Cell Signaling Technology; Danvers, MA), nuclear factor of kappa light polypeptide gene enhancer in B-cells inhibitor, alpha (NFKBIA; IκBα) (sc-371; Santa Cruz Biotechnology; Dallas, TX), phospho-NFKBIA (9246; Cell Signaling Technology), phospho-AKT1 (9271S; Cell Signaling Technology), AKT (9272S; Cell Signaling Technology) and GAPDH (4699–9555(ST); AbD Serotec; Raleigh, NC). After washing, membranes were incubated with horseradish peroxidase-conjugated anti-rabbit (111–035–003; Jackson ImmunoResearch Laboratories Inc; West Grove, PA) or anti-mouse immunoglobulin (115–035–003; Jackson ImmunoResearch Laboratories Inc). Detection was by enhanced chemiluminescence (Pierce ECL Western Blotting Substrate; Thermo Fisher Scientific Inc.; Rockford, IL) and visualization by autoradiography.
Cells were harvested after 30 min for western blotting and probed for phospho v-akt murine thymoma viral oncogene homolog 1 (pAKT1), AKT1 and glyceraldehyde 3-phosphate dehydrogenase (GAPDH). (PDF) Click here for additional data file.

[3] = test system: CDKN1C, DUSP1, RGS2 and TSC22D3 mRNA in BEAS-2B cells; assay: RT-PCR of glucocorticoid-inducible gene expression in BEAS-2B cells
[4] = target: T1, glucocorticoid receptor (NR3C1) (Homo sapiens, UniProt P04150); assay: 2×GRE luciferase reporter activation by NR3C1 ligands in BEAS-2B cells; type: cell-based; details: BEAS-2B 2×GRE reporter; for E max (% Dex), +TNF / E max (% Dex), Naive: percent of 1 μM dexamethasone; for EC50: pEC50 (M)
T1 construct: BEAS-2B cells stably transfected with a glucocorticoid response element (2×GRE) driven luciferase reporter plasmid; endogenous in cells; host or cells: BEAS-2B human bronchial epithelial cells stably carrying a 2×GRE luciferase reporter
T1 sequence (P04150 1-777): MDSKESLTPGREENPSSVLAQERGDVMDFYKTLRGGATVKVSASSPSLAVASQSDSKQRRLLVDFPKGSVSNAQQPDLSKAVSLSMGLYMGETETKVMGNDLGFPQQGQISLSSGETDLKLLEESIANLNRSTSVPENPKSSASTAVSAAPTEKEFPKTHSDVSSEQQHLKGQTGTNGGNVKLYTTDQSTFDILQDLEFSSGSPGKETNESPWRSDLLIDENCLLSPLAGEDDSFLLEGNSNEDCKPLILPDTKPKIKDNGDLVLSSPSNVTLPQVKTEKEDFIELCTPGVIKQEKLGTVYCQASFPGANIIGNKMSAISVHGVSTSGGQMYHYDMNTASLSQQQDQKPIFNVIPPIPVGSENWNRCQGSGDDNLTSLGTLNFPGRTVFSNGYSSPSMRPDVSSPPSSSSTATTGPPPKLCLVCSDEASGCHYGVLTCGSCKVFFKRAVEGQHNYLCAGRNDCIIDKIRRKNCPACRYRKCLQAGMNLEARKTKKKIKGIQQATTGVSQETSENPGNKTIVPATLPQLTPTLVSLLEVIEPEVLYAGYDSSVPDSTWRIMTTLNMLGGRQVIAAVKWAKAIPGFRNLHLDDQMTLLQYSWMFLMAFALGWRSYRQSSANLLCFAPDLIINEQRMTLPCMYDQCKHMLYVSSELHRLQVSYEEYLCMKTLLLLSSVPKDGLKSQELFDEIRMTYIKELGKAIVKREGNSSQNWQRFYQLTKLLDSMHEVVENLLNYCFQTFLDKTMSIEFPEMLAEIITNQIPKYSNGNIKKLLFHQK
Description: as §1
Cells were harvested 6 h after NR3C1 ligand addition for luciferase assay.
as §2

[5] = TNF 10 ng/ml pre-treatment 1 h, 6 h

Compound: COC[C@H]1OC(=O)c2coc3c2[C@@]1(C)C1=C(C3=O)[C@@H]2CCC(=O)[C@@]2(C)C[C@H]1OC(C)=O [wortmannin]
Effect on dexamethasone-induced 2×GRE reporter activation (concentration-response) [1]: concentration-dependently reduced
EC50 [2]: ~20 nM

Compound: Cn1cc(C2=C(c3cn(CCCSC(=N)N)c4ccccc34)C(=O)NC2=O)c2ccccc21 [Ro 31–8220]
Effect on dexamethasone-induced 2×GRE reporter activation (concentration-response) [1]: reduced

Compound: CN(C)CCCn1cc(C2=C(c3c[nH]c4ccccc34)C(=O)NC2=O)c2ccccc21 [GF109203X]
Effect on dexamethasone-induced 2×GRE reporter activation (concentration-response) [1]: enhanced

Compound: COc1cccc(-c2cc(=O)c3ccccc3o2)c1N [PD098059]
Effect on dexamethasone-induced 2×GRE reporter activation ([1]; 10 μM inhibitor 30 min pre-treatment, 6 h (Fig. 3A)): significantly reduced

EC50 [2]: ~70 nM
Compound: Oc1cccc(-c2nc(N3CCOCC3)c3oc4ncccc4c3n2)c1 [PI103]
Effect on dexamethasone-induced 2×GRE reporter activation (concentration-response) [1]: concentration-dependently reduced

Compound: C[C@]12C=CC(=O)C=C1CC[C@@H]1[C@@H]2[C@@H](O)C[C@@]2(C)[C@H]1C[C@H]1O[C@@H](C3CCCCC3)O[C@]12C(=O)CO [Des-ciclesonide]
RGS2 mRNA expression in the presence of formoterol relative to dexamethasone ([3]; 100 nM ligand, 10 nM formoterol, 6 h (Fig. 8)): significantly lower
TSC22D3 mRNA fold induction ([3]; 6 h, 1 μM dexamethasone, 100 nM other ligands (Fig. 8, n = 5)): 71 fold
Agonist type on 2×GRE reporter relative to dexamethasone [4]: partial agonists
E max (% Dex), +TNF [4, 5]: 43.1 ± 1.0 % Dex
E max (% Dex), Naive ([4]; no TNF, 6 h): 76.0 ± 2.0 % Dex
EC50 ([4]; +TNF, TNF 10 ng/ml pre-treatment 1 h, 6 h): 3.16e-09 M
EC50 ([4]; Naive, no TNF, 6 h): 2.51e-09 M

Agonist type on 2×GRE reporter relative to dexamethasone [4]: partial agonists
pEC50 (M), +TNF [4, 5]: 7.0 ± 0.1 M
E max (% Dex), +TNF [4, 5]: 40.7 ± 0.9 % Dex
pEC50 (M), Naive ([4]; no TNF, 6 h): 7.1 ± 0.0 M
E max (% Dex), Naive ([4]; no TNF, 6 h): 77.2 ± 1.0 % Dex
Compound: GSK9027

Compound: C[C@@H]1C[C@H]2[C@@H]3CCC4=CC(=O)C=C[C@]4(C)[C@@]3(F)[C@@H](O)C[C@]2(C)[C@@]1(O)C(=O)CO [Dexamethasone]
E max (% Dex), +TNF [4, 5]: 58.7 ± 3.2 % Dex
E max (% Dex), Naive ([4]; no TNF, 6 h): 100 ± 3.2 % Dex
